From patent publication US5409899A, “Pseudopeptide compounds having anti-inflammatory activity” (Adir et Compagnie, priority 1992, dated 1995)
Where a name gives a salt, the structure may show the parent alone. Square brackets hold non-standard residues; d marks the D form. Peptide text beside a SMILES is read from it. * marks the point of attachment. Benzoyl(4-guanidino) = N=C(N)Nc1ccc(C(=O)*)cc1; Oic = O=C(O)[C@@H]1C[C@@H]2CCCC[C@@H]2N1; Hyp = O=C(O)[C@@H]1C[C@@H](O)CN1; dTic = O=C(O)[C@H]1Cc2ccccc2CN1; 2Thi = N[C@@H](Cc1cccs1)C(=O)O

Molecular target: T1, B2 receptor (Oryctolagus cuniculus, UniProt Q28642)
T1 construct: rabbit jugular vein: B2 receptor; from tissue; host or cells: rabbit jugular vein
T1 sequence (Q28642 1-367): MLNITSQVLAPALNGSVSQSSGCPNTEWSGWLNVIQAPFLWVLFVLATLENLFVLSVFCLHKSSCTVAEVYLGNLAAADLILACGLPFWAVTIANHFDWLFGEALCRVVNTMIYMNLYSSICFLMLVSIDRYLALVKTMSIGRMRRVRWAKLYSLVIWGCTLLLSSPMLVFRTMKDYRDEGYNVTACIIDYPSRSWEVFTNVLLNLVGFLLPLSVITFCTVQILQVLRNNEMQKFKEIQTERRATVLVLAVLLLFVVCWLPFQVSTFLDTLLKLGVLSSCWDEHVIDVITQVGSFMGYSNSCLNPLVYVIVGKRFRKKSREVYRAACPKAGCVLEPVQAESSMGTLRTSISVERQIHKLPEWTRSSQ
Assay: Inhibition of bradykinin-induced contraction of rabbit jugular vein (B2 receptor)
Format: cell-based
Conditions: read-out: pA2 (negative logarithm of the molar concentration which necessitates a doubling of the bradykinin concentration to obtain the same effect) (converted)
From the text: Pharmacological study of the compound of the invention: rabbit jugular vein: B2 receptor

## N=C(N)NCCC[C@H](NC(=O)[C@@H]1C[C@@H]2CCCC[C@@H]2N1C(=O)[C@H]1Cc2ccccc2CN1C(=O)[C@H](CO)NC(=O)[C@H](Cc1cccs1)NC(=O)CNC(=O)[C@@H]1C[C@@H](O)CN1C(=O)[C@@H]1CCCN1C(=O)[C@H](CCCNC(=N)N)NC(=O)c1ccc(NC(=N)N)cc1)C(=O)O [Example 1, G-Arg-Pro-Hyp-Gly-Thia-Ser-(D)Tic-Oic-Arg-OH trifluoroacetate] ({Benzoyl(4-guanidino)}-RP[Hyp]G[2Thi]S[dTic][Oic]R-OH)
  Kb: 0.186 nM
